Source: paper PMC2857062 (The Journal of biological chemistry, 2010)

Experiments:
[1] = molecular target: Dock1 DHR-1 domain (422-619) (Homo sapiens, UniProt Q14185); assay: ITC; format: binding
[2] = molecular target: Dock1 DHR-1 domain (422-619) (Homo sapiens, UniProt Q14185, D436Y); assay: ITC; format: binding
Dock1 DHR-1 domain (422-619) (Homo sapiens, UniProt Q14185, D436Y), sequence (Q14185 422-619 D436Y): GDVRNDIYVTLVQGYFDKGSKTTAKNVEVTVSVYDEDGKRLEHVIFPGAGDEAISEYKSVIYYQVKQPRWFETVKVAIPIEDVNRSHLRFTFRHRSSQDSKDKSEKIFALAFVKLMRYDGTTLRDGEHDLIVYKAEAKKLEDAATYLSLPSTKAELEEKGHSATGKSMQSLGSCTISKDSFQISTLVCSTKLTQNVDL

Dock1 DHR-1 domain (422-619) (Homo sapiens, UniProt Q14185), sequence (Q14185 422-619): as the sequence (Q14185 422-619 D436Y) above, with Y15D counted along it

SMILES | Kd [1] [µM] | Kd [2] [µM]
O=P(O)(O)O[C@H]1[C@H](O)[C@@H](OP(=O)(O)O)[C@H](OP(=O)(O)O)[C@@H](OP(=O)(O)O)[C@H]1O [Ins(1,3,4,5)P4] | 7.7 ± 3 | 
CCCCCCCC(=O)OC[C@H](COP(=O)(O)O[C@H]1[C@H](O)[C@@H](OP(=O)(O)O)[C@H](OP(=O)(O)O)[C@@H](OP(=O)(O)O)[C@H]1O)OC(=O)CCCCCCC [di-C8-PtdIns(3,4,5)P3] |  | 3.4
